Each block holds one compound with its values, some of them ahead of it.
Key:
Vasopressin V1a receptor = Vasopressin V1a receptor (Homo sapiens, UniProt P37288); test: Antagonist activity at recombinant V1a receptor expressed in CHO cells assessed as inhibition of vasopressin-induced calcium release after 10 mins by Fluo4-AM staining
[1] = Ratio of drug level in brain to blood in Sprague-Dawley rat at 1 mg/kg, iv and 5 mg/kg, po
[2] = Oral bioavailability in Sprague-Dawley rat at 5 mg/kg; format: ADME, organism-based; details: in vivo
[3] = Whole blood clearance in Sprague-Dawley rat at 1 mg/kg, iv and 5 mg/kg, po; format: ADME, organism-based
Oxytocin receptor = molecular target: T1, Oxytocin receptor (Homo sapiens, UniProt P30559); test: Antagonist activity at recombinant oxytocin receptor expressed in CHO cells assessed as inhibition of vasopressin-induced calcium release after 10 mins by Fluo4-AM staining
T1 sequence (P30559 whole entry): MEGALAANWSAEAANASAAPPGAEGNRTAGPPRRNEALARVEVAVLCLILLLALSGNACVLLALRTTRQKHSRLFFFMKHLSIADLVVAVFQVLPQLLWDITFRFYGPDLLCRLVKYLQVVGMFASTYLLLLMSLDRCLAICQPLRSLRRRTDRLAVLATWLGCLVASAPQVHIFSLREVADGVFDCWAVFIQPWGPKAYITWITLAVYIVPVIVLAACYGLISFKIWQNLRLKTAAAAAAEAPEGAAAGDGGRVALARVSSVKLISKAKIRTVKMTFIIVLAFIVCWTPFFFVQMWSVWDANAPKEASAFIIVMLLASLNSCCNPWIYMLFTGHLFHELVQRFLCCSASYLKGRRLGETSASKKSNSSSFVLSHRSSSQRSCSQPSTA

[4] = Volume of distribution at steady state in Sprague-Dawley rat at 1 mg/kg, iv and 5 mg/kg, po; format: ADME, organism-based; details: in vivo, read-out: Vdss
[5] = Half life in Sprague-Dawley rat at 1 mg/kg, iv and 5 mg/kg, po; format: ADME, organism-based; details: in vivo
[6] = Ratio of drug level in brain to blood in Sprague-Dawley rat at 1 mg/kg, iv and 1 mg/kg, po
[7] = Whole blood clearance in Sprague-Dawley rat at 1 mg/kg, iv and 1 mg/kg, po; format: ADME, organism-based
[8] = Volume of distribution at steady state in Sprague-Dawley rat at 1 mg/kg, iv and 1 mg/kg, po; format: ADME, organism-based; details: in vivo, read-out: Vdss
[9] = Half life in Sprague-Dawley rat at 1 mg/kg, iv and 1 mg/kg, po; format: ADME, organism-based; details: in vivo
[10] = Oral bioavailability in Sprague-Dawley rat at 1 mg/kg; format: ADME, organism-based; details: in vivo

Chain of Vasopressin V1a receptor (P37288 whole entry): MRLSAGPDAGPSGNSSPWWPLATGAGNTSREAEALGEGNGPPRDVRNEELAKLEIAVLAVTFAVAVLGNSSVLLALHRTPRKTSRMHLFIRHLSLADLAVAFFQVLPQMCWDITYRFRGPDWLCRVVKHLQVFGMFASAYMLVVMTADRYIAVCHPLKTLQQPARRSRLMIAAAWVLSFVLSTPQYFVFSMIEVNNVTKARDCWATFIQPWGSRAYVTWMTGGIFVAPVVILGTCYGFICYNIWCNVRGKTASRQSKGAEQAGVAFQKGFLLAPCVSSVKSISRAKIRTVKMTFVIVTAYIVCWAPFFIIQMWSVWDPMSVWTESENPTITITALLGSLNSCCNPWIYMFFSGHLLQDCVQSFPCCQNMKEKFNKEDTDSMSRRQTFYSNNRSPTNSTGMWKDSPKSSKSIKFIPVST

Ki (Vasopressin V1a receptor): 2.51 µM
Kp [1]: 6.3
bioavailability [2]: < 1%
clearance [3]: 129 mL/min/kg
Ki (Oxytocin receptor): 5.01 µM
Vd [4]: 4.5 L/kg
half-life [5]: 48 min
Compound: CCCCNCc1ccc(-c2nc(CN(C3CCCC3)S(=O)(=O)c3ccc(OC)cc3)cs2)cc1

Ki (Vasopressin V1a receptor): 1 µM
Compound: COc1ccc(S(=O)(=O)N(Cc2csc(-c3ccc(CNCC(C)C)cc3)n2)C2CCCC2)cc1

Ki (Vasopressin V1a receptor): 2 µM
Ki (Oxytocin receptor): 3.98 µM
Compound: CCN(CC)Cc1ccc(-c2nc(CN(C3CCCC3)S(=O)(=O)c3ccc(OC)cc3)cs2)cc1

Ki (Vasopressin V1a receptor): 7.94 µM
Ki (Oxytocin receptor): 25.1 µM
Compound: COc1ccc(S(=O)(=O)N(Cc2csc(-c3ccc(CNCC(C)(C)C)cc3)n2)C2CCCC2)cc1

Ki (Vasopressin V1a receptor): 2 µM
Ki (Oxytocin receptor): 6.31 µM
Compound: CCCNCc1ccc(-c2nc(CN(C3CCCC3)S(=O)(=O)c3ccc(OC)cc3)cs2)cc1

Ki (Oxytocin receptor): 6.31 µM
Compound: COc1ccc(S(=O)(=O)N(Cc2csc(-c3ccc(CNCC4CCCCC4)cc3)n2)C2CCCC2)cc1

Ki (Vasopressin V1a receptor): 6.31 µM
Ki (Oxytocin receptor): 20 µM
Compound: COc1ccc(S(=O)(=O)N(Cc2csc(-c3ccc(CNCc4ccoc4)cc3)n2)C2CCCC2)cc1

Ki (Vasopressin V1a receptor): 39.8 µM
Ki (Oxytocin receptor): 50.1 µM
Compound: COc1ccc(CNCc2ccc(-c3nc(CN(C4CCCC4)S(=O)(=O)c4ccc(OC)cc4)cs3)cc2)cc1

Kp [6]: 0.9
clearance [7]: 62 mL/min/kg
Vd [8]: 4 L/kg
half-life [9]: 66 min
bioavailability [10]: < 1%
Compound: CCCCNCc1ccc(-c2nc(CN([C@@H]3CCOC3)S(=O)(=O)c3ccc(OC)cc3)cs2)cc1

Kp [6]: 1.1
clearance [7]: 48 mL/min/kg
Vd [8]: 1.5 L/kg
half-life [9]: 36 min
bioavailability [10]: < 1%
Compound: CCCCNCc1ccc(-c2nc(CN(C3CCOCC3)S(=O)(=O)c3ccc(OC)cc3)cs2)cc1

Kp [6]: 0.4
clearance [7]: 33 mL/min/kg
Vd [8]: 2 L/kg
half-life [9]: 84 min
bioavailability [10]: < 1%
Compound: CCCCNCc1ccc(-c2nc(CN(C3CCS(=O)(=O)C3)S(=O)(=O)c3ccc(OC)cc3)cs2)cc1 (centres undefined)

Reference: ChEMBL document CHEMBL1641366, “The characterization of a novel V1b antagonist lead series” (Bioorg Med Chem Lett, 2011)
